What all share (type): in vivo
Assay [1] deals with Ipomea hederaceae (IPOHE). The assay can be described thus: Post-emergence biological efficacy (percentage damage). To be noted: Ipomoea hederacea, 312 h, dose 1,000 g/ha, evaluated after 13 days, 100=total damage, 0=no damage. The method in brief:
(§1)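 Post-emergence spray, 250 or 1000 g/ha, acetone/water 50:50 + 0.5% Tween 20, on 8-day-old potted plants; glasshouse 24/16 °C, 14 h light, 65% RH, watered twice daily; % damage read at 13 d.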

Assay [2] concerns Solanum nigrum (SOLNI). The assay is described as above. The settings on record: Solanum nigrum, 312 h, dose 1,000 g/ha, evaluated after 13 days, 100=total damage, 0=no damage. The method in brief: as §1
Assay [3] concerns Amaranthus retoflexus (AMARE). The description is as above. To be noted: Amaranthus retroflexus, 312 h, dose 1,000 g/ha, evaluated after 13 days, 100=total damage, 0=no damage. The method in brief:
as §1

For assay [4], the system named is Setaria faberi (SETFA). Described as above. The settings on record: Setaria faberi, 312 h, dose 1,000 g/ha, evaluated after 13 days, 100=total damage, 0=no damage. The method in brief:
as §1

For assay [5], the system named is Alopecurus myosuroides (ALOMY). The assay is described as above. The settings on record: Alopecurus myosuroides, 312 h, dose 1,000 g/ha, evaluated after 13 days, 100=total damage, 0=no damage. The method in brief: as §1
Assay [6] has as its system Echinochloa crus-galli (ECHCG). The assay is described as above. To be noted: Echinochloa crus-galli, 312 h, dose 1,000 g/ha, evaluated after 13 days, 100=total damage, 0=no damage. The method in brief: as §1
Assay [7] has as its system Ipomea hederaceae (IPOHE). The assay can be described thus: Pre-emergence biological efficacy (percentage damage). To be noted: Ipomoea hederacea, 312 h, dose 1,000 g/ha, evaluated after 13 days, 100=total damage, 0=no damage. The method in brief:
(§2)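 Visual injury on a 0–100 scale was recorded 13 days after a spray giving 250 or 1000 g/ha of compound, applied one day post-sowing.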

The subject of assay [8] is Solanum nigrum (SOLNI). The assay is described as above. The settings on record: Solanum nigrum, 312 h, dose 1,000 g/ha, evaluated after 13 days, 100=total damage, 0=no damage. In outline: as §2
For assay [9], the system named is Amaranthus retoflexus (AMARE). The assay is described as above. To be noted: Amaranthus retroflexus, 312 h, dose 1,000 g/ha, evaluated after 13 days, 100=total damage, 0=no damage. In outline:
as §2

Assay [10] has as its system Setaria faberi (SETFA). Described as above. The settings on record: Setaria faberi, 312 h, dose 1,000 g/ha, evaluated after 13 days, 100=total damage, 0=no damage. In outline:
as §2

For assay [11], the system named is Alopecurus myosuroides (ALOMY). Described as above. To be noted: Alopecurus myosuroides, 312 h, dose 1,000 g/ha, evaluated after 13 days, 100=total damage, 0=no damage. In outline:
as §2

Assay [12] deals with Echinochloa crus-galli (ECHCG). The assay is described as above. To be noted: Echinochloa crus-galli, 312 h, dose 1,000 g/ha, evaluated after 13 days, 100=total damage, 0=no damage. The method in brief:
as §2

For `C=Cc1c(N)nc(-c2ccc(Cl)c(N(C)C)c2F)nc1C(=O)OCCCC` [Compound 33-391], the pest or weed control at 1000 g/ha in [1] was found to be 80%; in the assay on Solanum nigrum (SOLNI) [2] it was 80%; in assay [3], 100%; with Setaria faberi (SETFA) [4], 90%; in [5] it was 70%; in assay [6] it was 90%. In addition, the pest or weed control at 1000 g/ha turned out to be 20% in assay [7]; 100% with Solanum nigrum (SOLNI) [8]; 100% in assay [9]; 90% with Setaria faberi (SETFA) [10]; 70% in assay [11]; 100% in [12].

Turning to `C=Cc1c(N)nc(-c2ccc(Cl)c(N(C)C)c2F)nc1C(=O)OC(C)C` [Compound 33-306, 4-Amino-2-(4-chloro-3-dimethylamino-2-fluorophenyl)-5-ethenyl-6-isopropoxycarbon-yl-pyrimidine], the pest or weed control at 1000 g/ha in assay [1] amounted to 30%; in the assay with Solanum nigrum (SOLNI) [2], 100%; in assay [3] it was 100%; in the assay on Setaria faberi (SETFA) [4], 70%; in assay [5], 40%; in assay [6] it was 70%. The pest or weed control at 1000 g/ha in assay [7] was found to be 0%; with Solanum nigrum (SOLNI) [8], 80%; in assay [9], 40%; with Setaria faberi (SETFA) [10], 20%; in assay [11], 20%; in assay [12] it was 20%.

On to `C=C(C)c1c(N)nc(-c2ccc(Cl)c(OC)c2F)nc1C(=O)OC` [Compound 27-63, 4-Amino-2-(4-chloro-2-fluoro-3-methoxyphenyl)-6-methoxycarbonyl-5-(prop-1-en-2-yl)-pyrimidine], for which the pest or weed control at 1000 g/ha was 90% in assay [1]; 90% in the assay on Solanum nigrum (SOLNI) [2]; 100% in assay [3]; 90% with Setaria faberi (SETFA) [4]; 60% in assay [5]; 70% in assay [6]. Moreover, the pest or weed control at 1000 g/ha is 100% in assay [7]; 100% in the assay on Solanum nigrum (SOLNI) [8]; 100% in assay [9]; 50% in the assay on Setaria faberi (SETFA) [10]; 50% in [11]; 80% in assay [12].

On to `C=Cc1c(N)nc(SC)nc1OCC(=O)OC` [Compound 2-366, 4-amino-5-ethenyl-6-methoxycarbonylmethoxy-2-methylthio-pyrimidine], for which the pest or weed control at 1000 g/ha in [1] came to 0%; in the assay on Solanum nigrum (SOLNI) [2], 20%; in [3], 0%; with Setaria faberi (SETFA) [4], 0%; in assay [5] it was 0%; in [6], 0%. Besides, the pest or weed control at 1000 g/ha (in assay [7]; in the assay on Solanum nigrum (SOLNI) [8]; in assay [9]; in the assay with Setaria faberi (SETFA) [10]; in [11]; in [12]) was 0% throughout.

As to `C=Cc1c(N)nc(-c2ccc(Cl)c(N(C)C)c2F)nc1C(=O)OCCOCC` [Compound 33-396, 4-Amino-2-(4-chloro-3-dimethylamino-2-fluorophenyl)-5-ethenyl-6-(2-ethoxy-ethoxy)carbonyl-pyrimidine], the pest or weed control at 1000 g/ha worked out at 60% in assay [1]; 90% with Solanum nigrum (SOLNI) [2]; 100% in [3]; 90% in the assay on Setaria faberi (SETFA) [4]; 70% in [5]; 100% in assay [6]. The pest or weed control at 1000 g/ha amounted to 50% in assay [7]; 90% with Solanum nigrum (SOLNI) [8]; 100% in [9]; 80% in the assay on Setaria faberi (SETFA) [10]; 70% in assay [11]; 90% in assay [12].

A word on the pest or weed control: it is the degree to which the test organism was suppressed or injured, in per cent. A lower pest or weed control goes with weak suppression.

Values taken from patent publication US20120053053A1, “PYRIMIDINE DERIVATIVES AND THEIR USE AS HERBICIDES” (SYNGENTA CROP PROTECTION, LLC, priority 2009, published 2012).
